Source: patent publication US20110124867A1, “Process and intermediates for the Synthesis of heterocyclic Substituted Piperazines with CXCR3 Antagonist Activity” (Schering Corporation, priority 2007, published 2011)

Assays:
CXCR3 = target: T1, CXCR3 (Homo sapiens, UniProt P49682); conditions: statement in words, refers to the '641 application; cited from earlier work
T1 sequence (P49682 1-368): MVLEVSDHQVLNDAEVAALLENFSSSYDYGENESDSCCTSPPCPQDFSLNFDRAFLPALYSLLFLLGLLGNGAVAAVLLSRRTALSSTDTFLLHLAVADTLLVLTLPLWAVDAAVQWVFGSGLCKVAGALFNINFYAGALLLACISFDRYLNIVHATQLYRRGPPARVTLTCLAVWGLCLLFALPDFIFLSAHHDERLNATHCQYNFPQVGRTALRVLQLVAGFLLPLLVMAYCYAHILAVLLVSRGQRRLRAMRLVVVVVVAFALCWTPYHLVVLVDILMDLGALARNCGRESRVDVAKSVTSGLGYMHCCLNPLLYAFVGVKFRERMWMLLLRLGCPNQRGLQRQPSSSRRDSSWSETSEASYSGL

[1] = aqueous solubility of salt forms (comparison in words, no method given); type: physicochemical; conditions: methylsulfonate salt compared to other salts

SMILES	CXCR3 inhibitor activity (CXCR3)	aqueous solubility [1]
CCNc1nnc(-c2cnc(N3C[C@H](CC)N(C4CCN(C(=O)c5ccc(Cl)cc5)CC4)C[C@H]3C)c(C)n2)o1 [Compound A45]	useful CXCR3 inhibitor activity	–
CCNc1nnc(-c2cnc(N3C[C@H](CC)N(C4CCN(C(=O)c5ccc(Cl)cc5)CC4)C[C@H]3C)c(C)n2)o1 [Compound II-1]	–	higher aqueous solubility
